Reference: patent publication US11000511B2, “Chemical compounds as antibiotics” (priority 2017, dated 2021)

Columns and labels:
[1] = target: T1, LasB elastase activity in dialysed supernatant from P. aeruginosa strain PA01 (Pseudomonas aeruginosa, UniProt P14756); experiment: Elastin Congo Red assay to determine % inhibition (Assay 1); type: biochemical; conditions: for inhibition at 50 µM: read-out: Elastin hydrolysis % inhibition @ 50/25 μM inhibitor concentration Assay 1
T1 construct: uses as source of enzyme dialysed supernatant from P. aeruginosa; endogenous in cells; host or cells: P. aeruginosa strain PA01 culture supernatant, filtered and dialysed
T1 sequence (P14756 198-498): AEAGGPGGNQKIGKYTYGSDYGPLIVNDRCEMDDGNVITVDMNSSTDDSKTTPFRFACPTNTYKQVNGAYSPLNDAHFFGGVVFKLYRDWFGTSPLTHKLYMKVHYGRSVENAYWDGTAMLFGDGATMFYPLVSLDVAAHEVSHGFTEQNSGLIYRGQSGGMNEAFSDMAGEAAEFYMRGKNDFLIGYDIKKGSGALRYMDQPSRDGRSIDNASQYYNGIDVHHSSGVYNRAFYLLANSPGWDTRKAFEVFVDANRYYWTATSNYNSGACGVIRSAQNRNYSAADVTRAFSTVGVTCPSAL
Procedure: (§1) Experiments were therefore conducted (1) to measure the potency of inhibition of compounds of the invention against purified Pseudomonas aeruginosa LasB enzyme and also experiments were conducted (2) to measure the ability of compounds of the invention to inhibit LasB-catalysed elastin degradation. The first assay uses a commercial fluorescent synthetic peptide and purified LasB enzyme. The LasB hydrolysis kinetics are measured allowing the determination of the IC50 and Ki of the inhibitors; the second is a more physiological assay using dialysed Pseudomonas aeruginosa supernatant as source of enzyme, plus its natural substrate Elastin. It is an “end point assay” that determines the percentage of LasB inhibition by each compound for one particular time point and inhibitor concentration. Technical details are described below:
The Elastin assay uses as source of enzyme dialysed supernatant from P. aeruginosa and the elastin congo red as substrate. The natural LasB substrate, elastin, is complexed with the congo red dye (Elastin Congo Red, ECR). The elastolysis activity from the culture supernatant will degrade elastin and release the congo red dye into the supernatant. This red dye release can be measured with a spectrophotometer. Some compounds of Formula (I) were assessed using the method of Assay 1 (described below). Other compounds of Formula (I) were assessed using the alternative but equivalent method of Assay 2 (described below).
Method (Assay 1): To determine LasB elastase activity and assess compound inhibition, an overnight culture of P. aeruginosa strain PA01 is diluted thousand-fold in LB medium. This diluted solution is incubated during 19 hours in a shaking incubator. Culture supernatants are recovered by centrifugation and filtrated through a […] filter. These supernatants are dialysed (filtration molecules <20 kDa) into a 50 mM Tris pH 7.4, 2.5 mM CaCl2 solution at 4° C. under agitation for 24 hours. Supernatant dialysed is then mixed volume/volume with the ECR suspension (20 mg/mL of ECR in 100 mM Tris buffer supplemented with 1 mM CaCl2) supplemented with TritonX 100 (final concentration of 0.01%) in presence of different concentrations of compound (routinely 50 and 25 μM). The mixed reaction is then incubated for 24 hours in a 37° shaking incubator. As a negative control, the mixed supernatant is replaced by Tris solution (50 mM Tris pH 7.4, 2.5 mM CaCl2). The reaction supernatant is recovered by centrifugation and the release of congo red is measured by its absorbance at OD520. Percentage inhibition is determined using the following equation: (OD520 value of DMSO SN−OD520 value of LB)−(OD520 value of Compound SN−OD520 value of LB)/(OD520 value of DMSO SN−OD520 value of LB)×100.

[2] = target: T2, purified LasB protein from P. aeruginosa (Pseudomonas aeruginosa, UniProt P14756); experiment: Fluorometric assay to determine Ki (Assay 1); type: biochemical; conditions: Ki (μM) Assay 1, purified LasB, substrate Abz-Ala-Gly-Leu-Ala-p-Nitro-Benzyl-Amide 250 μM, Ki calculated from IC50; inhibitor 0.006 to 200 μM
T2 construct: purchased Merck or Charles River Laboratories
T2 sequence (P14756 198-498): as above
Procedure: as §1
This assay uses commercially available substrate (Abz-Ala-Gly-Leu-Ala-p-Nitro-Benzyl-Amide (Ex: 340 nm, Em: 415 nm) from Peptide International) and purified LasB protein from P. aeruginosa (provided by Merck or Charles River Laboratories). It is performed to determine LasB elastase activity and assess compound inhibition in 96-well plate format. Some compounds of Formula (I) were assessed using the method of Assay 1 (described below). Other compounds of Formula (I) were assessed using the alternative but equivalent method of Assay 2 (described below).
Method: 10 to 140 ng/ml purified LasB is incubated with 250 μM Abz-Ala-Gly-Leu-Ala-p-Nitro-Benzyl-Amide in 50 mM Tris-HCl pH 7.4, 2.5 mM CaCl2), 0.01% of Triton X100 at 37° C. LasB activity (corresponding to fluorescence emission induced by substrate hydrolysis) is measured over 30 min at 37° C. with a fluorescence plate reader such as the Perkin Elmer Envision or similar. Different range of inhibitor concentrations are routinely assessed depending of inhibitor potency from 0.006 to 200 μM (Assay 1; 2-fold dilutions series) or from 0.0016 to 200 μM (Assay 2; 2-fold dilutions series) in order to determine IC50.
The equation used to calculate the Ki from IC50 is: Ki=IC50/(1+([S]/Km)) where [S]=250 μM and Km=214 μM.

Row | SMILES | inhibition at 50 µM [1] | Ki [2] | Elastin hydrolysis % inhibition @ 50/25 μM inhibitor concentration Assay 1 ([1]; 50 μM inhibitor concentration, elastin congo red, 24 hours, OD520)
1 | CC(NC(=O)C1(CC(=O)O)Cc2ccccc2C1)c1cc2ccccc2o1 (single isomer, unassigned) [Example 58, 2-[2-[[(1R*)-1-(benzofuran-2-yl)ethyl]carbamoyl]indan-2-yl]acetic acid] | 30 to 60% | 2 to 10 µM | 
2 | CC(NC(=O)C1(CC(=O)O)Cc2ccccc2C1)c1cc2ccccc2o1 (single isomer, unassigned) [Example 59, 2-[2-[[(1S*)-1-(benzofuran-2-yl)ethyl]carbamoyl]indan-2-yl]acetic acid] |  | 0.3 to 2 µM | B (30 to 60% inhibition)
3 | O=C(O)CC1(C(=O)NCc2nc3cc(Cl)ccc3[nH]2)Cc2ccccc2C1 [Example 1, 2-(2-{[(5-Chloro-1H-1,3-benzodiazol-2-yl)methyl]carbamoyl}-2,3-dihydro-1H-inden-2-yl)acetic acid] | 30 to 60% | 0.3 to 2 µM | 
4 | O=C(O)CC1(C(=O)NCc2cc3ccccc3cn2)Cc2ccccc2C1 [Example 2, 2-[2-(3-isoquinolylmethylcarbamoyl)indan-2-yl]acetic acid] | 30 to 60% | 0.3 to 2 µM | 
5 | Cn1cc(CNC(=O)C2(CC(=O)O)Cc3ccccc3C2)cn1 [Example 3, 2-[2-[(1-methylpyrazol-4-yl)methylcarbamoyl]-indan-2-yl]acetic acid] | 30 to 60% | 2 to 10 µM | 
6 | O=C(O)CC1(C(=O)NCc2cc3ccccc3o2)Cc2ccccc2C1 [Example 5, 2-(2-{[(1-Benzofuran-2-yl)methyl]carbamoyl}-2,3-dihydro-1H-inden-2-yl)acetic acid] | 30 to 60% | 0.3 to 2 µM | 
7 | Cc1ccc2oc(CNC(=O)C3(CC(=O)O)Cc4ccccc4C3)cc2c1 [Example 6, 2-(2-{[(5-methyl-1-benzofuran-2-yl)methyl]carbamoyl}-2,3-dihydro-1H-inden-2-yl)acetic acid] | > 60% | < 0.3 µM | 
8 | Cc1ccc2c(c1)CC(CNC(=O)C1(CC(=O)O)Cc3ccccc3C1)O2 (centres unmarked) [Example 7, 2-[2-[(5-methyl-2,3-dihydrobenzofuran-2-yl)methylcarbamoyl]indan-2-yl]acetic acid] | > 60% | < 0.3 µM | 
9 | O=C(O)CC1(C(=O)NC2CCN(c3cccc(Cl)c3)C2)Cc2ccccc2C1 (centres unmarked) [Example 8, 2-[2-[[1-(3-chlorophenyl)pyrrolidin-3-yl]carbamoyl]indan-2-yl]acctic acid] | > 60% | < 0.3 µM | 
10 | Cn1c(CNC(=O)C2(CC(=O)O)Cc3ccccc3C2)cc2ccccc21 [Example 9, 2-[2-[(1-methylindol-2-yl)methylcarbamoyl]indan-2-yl]acetic acid] | > 60% | < 0.3 µM | 
11 | O=C(O)CC1(C(=O)NCc2nc3ccccc3s2)Cc2ccccc2C1 [Example 10, 2-(2-{[(1,3-Benzothiazol-2-yl)methyl]carbamoyl}-2,3-dihydro-1H-inden-2-yl)acetic acid] | > 60% | < 0.3 µM | 
12 | Cc1c(CNC(=O)C2(CC(=O)O)Cc3ccccc3C2)oc2ccccc12 [Example 11, 2-(2-{[2-(3-methyl-1-benzofuran-2-yl)methyl]carbamoyl}-2,3-dihydro-1H-inden-2-yl)acetic acid] | 30 to 60% | 0.3 to 2 µM | 
13 | O=C(O)CC1(C(=O)NCCc2nc3ccccc3[nH]2)Cc2ccccc2C1 [Example 12, 2-[2-[2-(1H-benzimidazol-2-yl)ethylcarbamoyl]indan-2-yl]acetic acid] | 15 to 30% | 2 to 10 µM | 
14 | O=C(O)CC1(C(=O)NCCc2ccc(O)cc2)Cc2ccccc2C1 [Example 13, 2-[2-[2-(4-hydroxyphenyl)ethylcarbamoyl]indan-2-yl]acetic acid] | 30 to 60% | 2 to 10 µM | 
15 | O=C(O)CC1(C(=O)NCCc2c[nH]c3ccccc23)Cc2ccccc2C1 [Example 14, 2-[2-[2-(1H-indol-3-yl)ethylcarbamoyl]indan-2-yl]acetic acid] | 30 to 60% | < 0.3 µM | 
16 | O=C(O)CC1(C(=O)NCc2ccccc2)Cc2ccccc2C1 [Example 16, 2-[2-(benzylcarbamoyl)indan-2-yl]acetic acid] | 30 to 60% | 2 to 10 µM | 
17 | O=C(O)CC1(C(=O)NCC2COc3ccccc3O2)Cc2ccccc2C1 (centres unmarked) [Example 17, 2-[2-(2,3-dihydro-1,4-benzodioxin-3-ylmethylcarbamoyl)indan-2-yl]acetic acid] | 30 to 60% | 0.3 to 2 µM | 
18 | O=C(O)CC1(C(=O)NCc2cc3cc(Br)ccc3o2)Cc2ccccc2C1 [Example 18, 2-[2-[(5-bromobenzofuran-2-yl)methylcarbamoyl]indan-2-yl]acetic acid] | > 60% | < 0.3 µM | 
19 | O=C(O)CC1(C(=O)NCCc2cc3ccccc3o2)Cc2ccccc2C1 [Example 19, 2-[2-[2-(benzofuran-2-yl)ethylcarbamoyl]indan-2-yl]acetic acid] | 15 to 30% | 2 to 10 µM | 
20 | Cc1oc2ccccc2c1CNC(=O)C1(CC(=O)O)Cc2ccccc2C1 [Example 20, 2-[2-[(2-methylbenzofuran-3-yl)methylcarbamoyl]indan-2-yl]acetic acid] | 30 to 60% | 2 to 10 µM | 
21 | Cn1cnc(CNC(=O)C2(CC(=O)O)Cc3ccccc3C2)c1 [Example 21, 2-[2-[(1-methylimidazol-4-yl)methylcarbamoyl]indan-2-yl]acetic acid] | 30 to 60% | 2 to 10 µM | 
22 | O=C(O)CC1(C(=O)NCCc2nc3ccccc3s2)Cc2ccccc2C1 [Example 22, 2-[2-[2-(1,3-benzothiazol-2-yl)ethylcarbamoyl]indan-2-yl]acetic acid] | 15 to 30% | 2 to 10 µM | 
23 | O=C(O)CC1(C(=O)NCc2cc3ccccc3s2)Cc2ccccc2C1 [Example 23, 2-[2-(benzothiophen-2-ylmethylcarbamoyl)indan-2-yl]acetic acid] | 30 to 60% | < 0.3 µM | 
24 | COc1ccc2sc(CNC(=O)C3(CC(=O)O)Cc4ccccc4C3)nc2c1 [Example 24, 2-[2-[(5-methoxy-1,3-benzothiazol-2-yl)methylcarbamoyl]indan-2-yl]acetic acid] | > 60% | < 0.3 µM | 
25 | O=C(O)CC1(C(=O)NCc2nc3cc(Cl)ccc3s2)Cc2ccccc2C1 [Example 25, 2-[2-[(5-chloro-1,3-benzothiazol-2-yl)methylcarbamoyl]indan-2-yl]acetic acid] | > 60% | < 0.3 µM | 
26 | O=C(O)CC1(C(=O)NCc2c[nH]c3ccccc23)Cc2ccccc2C1 [Example 26, 2-[2-(1H-indol-3-ylmethylcarbamoyl)indan-2-yl]acetic acid] | 30 to 60% | 2 to 10 µM | 
27 | O=C(O)CC1(C(=O)NCCc2cc3ccccc3[nH]2)Cc2ccccc2C1 [Example 27, 2-[2-[2-(1H-indol-2-yl)ethylcarbamoyl]indan-2-yl]acetic acid] | 15 to 30% | 2 to 10 µM | 
28 | O=C(O)CC1(C(=O)NCc2cc3ccccc3[nH]2)Cc2ccccc2C1 [Example 29, 2-[2-(1H-indol-2-ylmethylcarbamoyl)indan-2-yl]acetic acid] | 30 to 60% | < 0.3 µM | 
